Data taken from patent publication US4124369A, “Combating fungi and controlling plant growth with 1-amido-1-azolyl-2-hydroxy- or -keto-alkanes” (Bayer Aktiengesellschaft, priority 1976, dated 1978).

Assays:
[1] = test system: Erysiphe graminis var. hordei; test: Powdery mildew of barley test/systemic (seed treatment); assay type: in vivo, Erysiphe graminis var. hordei on barley; settings: 25% by weight active compound in the dressing, 10 g dressing/kg of seed, systemic, 0% = no infection
Procedure: powdery mildew of barley (Erysiphe graminis var.hordei)/systemic (fungal disease of cereal shoots) The active compounds were used as pulverulent seed treatment agents. They were prepared by extending the particular active compound with a mixture of equal parts by weight of talc and kieselguhr to give a finely pulverulent mixture of the desired concentration of active compound. For the treatment of seed, barley seed was shaken with the extended active compound in a closed glass bottle. The seed was sown at the rate of 3 × 12 grains in flowerpots, 2 cm deep in a mixture of one part by volume of Fruhstorfer standard soil and one part by volume of quartz sand. The germination and emergence took place under favorable conditions in a greenhouse. 7 days after sowing, when the barley plants have developed their first leaf, they were dusted with fresh spores of Erysiphe graminis var. hordei and grown on at 21°-22° C. and 80-90% relative atmospheric humidity and 16 hours' exposure to light. The typical mildew pustules formed on the leaves over the course of 6 days. The degree of infection was expressed as a percentage of the infection of the untreated control plants. Thus, 0% denoted no infection and 100% denoted the same degree of infection as in the case of the untreated control. […] The active compounds and concentrations of active compound in the seed treatment agent, as well as the amount used of the latter, and the percentage infection with mildew can be seen from the table which follows: […]

[2] = test system: Erysiphe graminis var. hordei; test: Shoot treatment test/powdery mildew of cereals/protective; assay type: in vivo, Erysiphe graminis var. hordei on barley (Amsel variety); settings: protective, 6 days, 0% = no infection
Procedure: shoot treatment test/powdery mildew of cereals/protective (leaf-destructivemycosis)
To produce a suitable preparation of active compound, 0.25 part by weight of active compound was taken up in 25 parts by weight of dimethylformamide and 0.06 part by weight of emulsifier alkylarylpolyglycol ether and then 975 parts by weight of water were added. The concentration was diluted with water to the desired final concentration of the spray liquor.
To test for protective activity, single-leaved young barley plants of the Amsel variety were sprayed with the preparation of active compound until dew-moist. After drying, the barley plants were dusted with spores of Erysiphe graminis var. hordei.
After 6 days' dwell time of the plants at a temperature of 21°-22° C. and 80-90% atmospheric humidity the occurrence of mildew pustules on the plants was evaluated. The degree of infection was expressed as a percentage of the infection of the untreated control plants. 0% denoted no infection and 100% denoted that same degree of infection as in the case of the untreated control.
The active compounds, the concentrations of the active compounds in the spray liquor and degrees of infection can be seen from the table which follows: […]

barley plants = test: Inhibition of growth/barley; assay type: in vivo; settings: 0.05%; 100% = growth stopped, 0% = growth of untreated control
Excerpt: Inhibition of growth/barley
(§1) Solvent: 10 parts by weight of methanol
(§2) Emulsifier: 2 parts by weight of polyoxyethylene sorbitan monolaurate
To prepare a suitable preparation of active compound, 1 part by weight of active compound was mixed with the stated amount of solvent and emulsifier and the mixture was made up to the desired concentration with water.
Young barley plants, in the 2-leaf stage, were sprayed with the preparation of active compound until dripping wet. After the untreated control plants had reached a growth height of about 60 cm, the additional growth of all the plants was measured and the inhibition of growth in % of the additional growth of the control plants was calculated. 100% meant that growth had stopped and 0% denoted a growth corresponding to that of the untreated control plants.
The active compounds, concentrations of the active compounds and results can be seen from the table which follows.

tobacco plants = test: Inhibition of the growth of side shoots of tobacco; assay type: in vivo; settings: 0.2%; after 3 weeks; 100% = absence of side shoots
Excerpt: inhibition of the growth of side shoots of tobacco
as §1
Emulsifier: 2 parts by weight of polyoxyethylene-sorbitan monolaurate
To prepare a suitable preparation of active compound, 1 parts by weight of active compound was mixed with the stated amounts of solvent and emulsifier and the mixture was made up to the desired concentration with water.
The shoot tips of about 50 cm high tobacco plants were broken off. On the following day, the plants were sprayed with the preparations of active compound until dripping wet. After 3 weeks, the side shoots which had formed during this time were broken off. All the side shoots of one treatment were weighed. The weight of the side shoots of the treated plants was compared with the weight of the side shoots of the untreated control plant. 100% inhibition denoted the absence of side shoots and 0% denoted a growth of side shoots which correspond to that of the control plants.
The active compounds, the concentrations of the active compounds and results can be seen from the table which follows: […]

Fusicladium dendriticum = test: Fusicladium test (apple)/protective; assay type: in vivo, Fusicladium dendriticum (apple scab) on apple seedlings; settings: 0.0025% active compound; protective; 15 days after inoculation; 0% = no infection, 100% = completely infected
Procedure: fusicladium test (apple)/Protective Solvent: 4.7 parts by weight of acetone Emulsifier: 0.3 part by weight of alkylaryl polyglycol ether Water: 95 parts by weight. The amount of active compound required for the desired concentration of the active compound in the spray liquid was mixed with the stated amount of solvent, and the concentrate was diluted with the stated amount of water which contained with stated additions. Young apple seedlings in the 4-6 leaved stage were sprayed with the spray liquid until dripping wet. The plants remained in a greenhouse for 24 hours at 20° C. and at a relative atmospheric humidity of 70%. They were then inoculated with an aqueous conidium suspension of the apple scab causative organism (Fusicladium dendriticum) and incubated for 18 hours in a humidity chamber at 18°-20° C. and at a relative atmospheric humidity of 100%. The plants were then brought into a greenhouse for 14 days. 15 days after inoculation, the infection of the seedlings was determined. The ratings obtained were converted to percent infection. 0% meant no infection; 100% meant that the plants were completely infected. The active compounds, the concentrations of the active compounds and the results can be seen from the following table: […]

Podosphaera leucotricha = test: Podosphaera test (apple)/protective; assay type: in vivo; settings: 0.00125% active compound; protective; 10 days after inoculation; 0% = no infection, 100% = completely infected
Procedure: podosphaera test (apple)/protective Solvent: 4.7 parts by weight of acetone Emulsifier: 0.3 part by weight of alkylaryl polyglycol ether Water: 95 parts by weight The amount of active compound required for the desired concentration of the active compound in the spray liquid was mixed with the stated amount of solvent, and the concentrate was diluted with the stated amount of water which contained the stated additions. Young apple seedlings in the 4-6 leaved stage were sprayed with the spray liquid until dripping wet. The plants remained in a greenhouse for 24 hours at 20° C. and at a relative atmospheric humidity of 70%. They were then inoculated by dusting with conidia of the apple powdery mildew causative organism (Podosphaera leucotricha) and placed in a greenhouse at a temperature of 21°-23° C. and at a relative atmospheric humidity of about 70%. 10 days after the inoculation, the infection of the seedlings was determined. The ratings obtained were converted to percent infection. 0% meant no infection: 100% meant that the plants were completely infected. The active compounds, the concentrations of the active compounds and the results can be seen from the following table: […]

fungi = settings: cited from earlier work
soya bean plants = test: Influence on growth/soya beans; assay type: in vivo; settings: 0.05%; footnote *
Excerpt: influence on growth/soya beans
as §1, §2
To prepare a suitable preparation of active compound, 1 part by weight of active compound was mixed with the stated amounts of solvent and emulsifier and the mixture was made up to the desired concentration with water.
Young soya bean plants, in the stage in which the first secondary leaves had unfolded, were sprayed with the preparation of active compound until dripping wet. After 3 weeks, the additional growth was measured and the inhibition of growth in % of the additional growth of the control plants was calculated. 0% denoted growth corresponding to that of the control plants. Positive values characterized promotion of growth compared to the control plants while negative values corrrespondingly indicated an inhibition of growth.
The active compounds, concentrations of the active compounds and results can be seen from the table which follows: […]

[3] = 0.025% by weight active compound in the spray liquor
[4] = 0.01% by weight active compound in the spray liquor

Row | SMILES | Infection in % of the untreated control [1] [%] | Infection in % of the untreated control [2, 3] [%] | other results
1 | CC(C)(C)C(O)C(NC(=O)c1ccccc1Cl)n1ccnc1 (centres unmarked) [drawing 31] | 58.8 | – | –
2 | CC(C)(C)C(O)C(NC(=O)c1ccccc1)n1cncn1 (centres unmarked) [drawing 25] | – | 40.0 | –
3 | CC(C)(C)C(O)C(NC(=O)c1ccccc1)n1cncn1 (centres unmarked) [drawing 35] | 17.5 | – | –
4 | CC(C)(C)C(=O)C(NC(=O)c1ccccc1)n1cncn1 (centres unmarked) [drawing 18] | – | 500 | –
5 | CC(C)(C)C(=O)C(NC(=O)c1ccccc1)n1cncn1 (centres unmarked) [drawing 30] | 0.0 | – | –
6 | CC(C)(C)C(=O)NC(C(=O)C(C)(C)C)n1ccnc1 (centres unmarked) | – | 30.0 | –
7 | CC(C)(C)C(=O)C(NC(=O)c1cc(Cl)ccc1Cl)n1cncn1 (centres unmarked) | – | 50.0 | –
8 | CC(C)(C)C(=O)C(NC(=O)c1cc(Cl)ccc1Cl)n1ccnc1 (centres unmarked) | – | 21.3 | –
9 | CC(C)(C)C(=O)C(NC(=O)c1ccccc1Cl)n1ccnc1 (centres unmarked) | 55.0 | – | –
10 | CC(C)(C)C(=O)C(NC(=O)c1ccccc1Cl)n1cncn1 (centres unmarked) [drawing 16] | – | 50.0 | –
11 | CC(C)(C)C(=O)C(NC(=O)COc1ccc(Cl)cc1Cl)n1ccnc1 (centres unmarked) [drawing 41] | – | – | Inhibition of growth in % (barley plants): 45%
12 | c1ccc(C(c2ccccc2)(c2ccccc2)n2cncn2)cc1 [drawing 13, reference compound] | – | 100.0 | Infection in % of the untreated control [2, 4]: 100.0%
13 | CC(C)(C)C(O)C(NC(=O)c1ccccc1Cl)n1ccnc1 (centres unmarked) [drawing 19] | – | 28.8 | –
14 | CC(C)(C)C(=O)C(NC(=O)c1ccccc1Cl)n1cncn1 (centres unmarked) [drawing 29] | 0.0 | – | –
15 | CC(C)(C)C(=O)C(NC(=O)COc1ccc(Cl)cc1Cl)n1ccnc1 (centres unmarked) [drawing 42] | – | – | Inhibition in % (growth of side shoots) (tobacco plants): 97%
16 | CC(C)(C)C(=O)C(NC(=O)Cc1ccccc1)n1cncn1 (centres unmarked) [drawing 34] | 0.0 | – | –
17 | CC(C)(C)C(=O)C(NC(=O)COc1ccccc1)n1cncn1 (centres unmarked) | – | – | Infection in % of the untreated control [2, 4]: 32.5%
18 | CC(C)(C)C(=O)C(NC(=O)c1ccc(Cl)cc1)n1cncn1 (centres unmarked) [Compound 1, 1-(p-chlorobenzamido)-3,3-dimethyl-1-(1,2,4-triazol-1-yl) butan-2-one] | – | – | Infection in % at an active compound concentration of 0.0025% (Fusicladium dendriticum): 50%; Infection in % at an active compound concentration of 0.00125% (Podosphaera leucotricha): 50%
19 | CC(C)(C)C(=O)NC(C(=O)C(C)(C)C)n1cncn1 (centres unmarked) | 25.0 | – | –
20 | c1ccc(C(c2ccccc2)(c2ccccc2)n2cncn2)cc1 [A, triphenyl-1,2,4-triazol-1-yl-methane, reference compound] | – | – | fungicidal activity (prior art) (fungi; German Offenlegungsschrift 1,795,249): good fungicidal activity; action at low amounts and low concentrations (prior art) (fungi; especially low amounts and low concentrations): not always entirely satisfactory; Infection in % at an active compound concentration of 0.0025% (Fusicladium dendriticum): 83%; Infection in % at an active compound concentration of 0.00125% (Podosphaera leucotricha): 85%
21 | CC(C)(C)C(=O)C(NC(=O)Cc1ccccc1)n1ccnc1 (centres unmarked) | 50.0 | – | –
22 | c1ccc(C(c2ccccc2)(c2ccccc2)n2cncn2)cc1 [drawing 27, reference compound] | 88.8 | – | –
23 | CC(C)(C)C(=O)C(NC(=O)c1ccc(Cl)cc1)n1cncn1 (centres unmarked) [drawing 14] | – | – | Infection in % of the untreated control [2, 4]: 0.0%
24 | CC(C)(C)C(O)C(NC(=O)c1cc(Cl)ccc1Cl)n1cncn1 (centres unmarked) [drawing 33] | 25.0 | – | –
25 | CC(C)(C)C(=O)C(NC(=O)COc1ccc(Cl)cc1Cl)n1ccnc1 (centres unmarked) [drawing 38] | – | – | Influence on growth, note on leaves (soya bean plants): dark green leaves
26 | CC(C)(C)C(=O)C(NC(=O)c1ccccc1)n1ccnc1 (centres unmarked) | – | 12.5 | –
27 | CC(C)(C)C(=O)C(NC(=O)c1cccc(Cl)c1)n1ccnc1 (centres unmarked) [drawing 32] | 50.0 | – | –
28 | CC(C)(C)C(=O)C(NC(=O)c1cccc(Cl)c1)n1ccnc1 (centres unmarked) [drawing 20] | – | 28.8 | –
29 | CC(C)(C)C(=O)C(NC(=O)Cc1ccccc1)n1cncn1 (centres unmarked) [drawing 24] | – | 40.0 | –
30 | CC(C)(C)C(O)C(NC(=O)c1cc(Cl)ccc1Cl)n1cncn1 (centres unmarked) [drawing 23] | – | 40.0 | –
